From patent publication US20140073700A1, “[…] ACID DERIVATIVES AND METHODS OF USE THEREOF” (AbbVie Inc., priority 2012, published 2014)

tested on: IFNγ-Induced NO Production in RAW 264.7 cells; assay: Nitric Oxide Suppression Assay (suppression of IFNγ-induced NO production); format: cell-based; conditions: RAW264.7; RAW 264.7 mouse macrophage cells, 20 ng/mL interferon gamma, Griess detection; single curve fit to mean data of n=2-3
Procedure: RAW 264.7, a mouse macrophage cell line, was obtained from American Type Culture Collection (Manassas Va.) and maintained in the log phase of growth in Dulbecco's Modified Eagle's Medium (DMEM), 10% heat inactivated fetal calf serum and 100 units/mL antibiotic-antimycotic (AA). Cells were cultured and maintained in a humidified incubator at 37° C. under 5% CO2 and 95% air. Cells were sub-cultured every 3 days by scraping and were not used beyond passage 20. All cell culture supplies were obtained from Life Technologies (Grand Island, N.Y.).
RAW 264.7 cells were plated 1 day in advance of experiment at a concentration of 80,000 cells/well onto CellBIND® 96 well plates (Corning, N.Y.) in a total volume of 100 μL. The next day, pre-treat cells with compounds (from 3 μM to 0.3 nM serially diluted in a 10 point curve) from a 10× stock by adding 10 μL per well in complete DMEM media containing 10% fetal calf serum. The plates were centrifuged for 3 minutes at 400×g at room temperature followed by 2 hour incubation at 37° C. The cells were then incubated overnight at 37° C. with 10 μL of the insult, interferon gamma (R&D Systems, Minneapolis, Minn.), from a 10× stock for a final concentration of 20 ng/mL. The plates were centrifuged for 3 minutes at 400×g at room temperature followed by 18 hour incubation at 37° C. The following day, transfer 50 μL cell culture supernatant from each well into a clear bottom 96 well plate and follow the instructions from Promega's Griess Detection Kit #G2930 (Madison, Wis.) which involves the addition of 50 μL of the provided sulfanilamide solution for a 5-10 minute incubation at room temperature. Next add 50 μL of the provided N-1-napthylethylenediamine dihydrochloride (NED) solution for a 5-10 minute incubation at room temperature and protected from light. If any air bubbles were introduced into the well, the plates need to be centrifuged for 5 minutes at 400×g at room temperature to avoid interference with absorbance readings. The plates were read for absorbance within 30 minutes with a filter between 520 nm and 550 nm.
For the ability of compounds to suppress the increase in nitric oxide release, the percent maximal intensity of nitric oxide detected in each well was normalized to that induced by the peak value for 20 ng/mL of interferon gamma alone and plotted against the compound concentration to calculate IC50 values and to control for plate-to-plate variability. Concentration-response data were analyzed using GraphPad Prism (San Diego, Calif.); the IC50 values were derived from a single curve fit to the mean data of n=2-3, in duplicates.
All compounds were dissolved in dimethyl sulfoxide at 10 mM stock solutions and tested at a concentration that the dimethyl sulfoxide levels never exceeded 1%.

Compared with COCCNC(=O)[C@@]1(C)CC[C@]2(C)CC[C@]3(C)[C@H](C(=O)C=C4[C@@]5(C)C=C(C#N)C(=O)C(C)(C)[C@@H]5CC[C@]43C)[C@@H]2C1 [Example 34, (2S,4aS,6aR,6bS,8aR,12aS,14aR,14bS)-11-cyano-N-(2-methoxyethyl)-2,4a,6a,6b,9,9,12a-heptamethyl-10,14-dioxo-1,2,3,4,4a,5,6,6a,6b,7,8,8a,9,10,12a,14,14a,14b-octadecahydropicene-2-carboxamide], COCC(COC)NC(=O)[C@@]1(C)CC[C@]2(C)CC[C@]3(C)[C@H](C(=O)C=C4[C@@]5(C)C=C(C#N)C(=O)C(C)(C)[C@@H]5CC[C@]43C)[C@@H]2C1 [Example 37, (2S,4aS,6aR,6bS,8aR,12aS,14aR,14bS)-11-cyano-N-(1,3-dimethoxypropan-2-yl)-2,4a,6a,6b,9,9,12a-heptamethyl-10,14-dioxo-1,2,3,4,4a,5,6,6a,6b,7,8,8a,9,10,12a,14,14a,14b-octadecahydropicene-2-carboxamide] is 5.3-fold higher in IC50: 3 nM for the first, 15.8 nM for the second.

COCCN(C)C(=O)[C@@]1(C)CC[C@]2(C)CC[C@@]3(C)[C@]4(C)CC[C@H]5C(C)(C)C(=O)C(C#N)=C[C@]5(C)C4=CC(=O)[C@]3(O)[C@@H]2C1 [Example 28, (2S,4aS,6aS,6bR,8aR,12aS,14aS,14bR)-11-cyano-14a-hydroxy-N-(2-methoxyethyl)-N,2,4a,6a,6b,9,9,12a-octamethyl-10,14-dioxo-1,2,3,4,4a,5,6,6a,6b,7,8,8a,9,10,12a,14,14a,14b-octadecahydropicene-2-carboxamide] and CC1(C)C(=O)C(C#N)=C[C@]2(C)C3=CC(=O)[C@]4(O)[C@@H]5C[C@@](C)(C(=O)NCC#N)CC[C@]5(C)CC[C@@]4(C)[C@]3(C)CC[C@@H]12 [Example 29, (2S,4aS,6aS,6bR,8aR,12aS,14aS,14bR)-11-cyano-N-(cyanomethyl)-14a-hydroxy-2,4a,6a,6b,9,9,12a-heptamethyl-10,14-dioxo-1,2,3,4,4a,5,6,6a,6b,7,8,8a,9,10,12a,14,14a,14b-octadecahydropicene-2-carboxamide] are within 1.5-fold of each other in IC50: 17.4 nM for the first, 16.9 nM for the second.

CC1(C)C(=O)C(C#N)=C[C@]2(C)C3=CC(=O)[C@]4(O)[C@@H]5C[C@@](C)(C(=O)n6ccnc6)CC[C@]5(C)CC[C@@]4(C)[C@]3(C)CC[C@@H]12 [Example 15, (4aR,6aR,6bS,8aS,11S,12aR,12bS,14bS)-12b-hydroxy-11-(1H-imidazol-1-ylcarbonyl)-4,4,6a,6b,8a,11,14b-heptamethyl-3,13-dioxo-3,4,4a,5,6,6a,6b,7,8,8a,9,10,11,12,12a,12b,13,14b-octadecahydropicene-2-carbonitrile] and CC1(C)C(=O)C(C#N)=C[C@]2(C)C3=CC(=O)[C@]4(O)[C@@H]5C[C@@](C)(C(=O)O)CC[C@]5(C)CC[C@@]4(C)[C@]3(C)CC[C@@H]12 [Example 3D, (2S,4aS,6aS,6bR,8aR,12aS,14aS,14bR)-11-cyano-14a-hydroxy-2,4a,6a,6b,9,9,12a-heptamethyl-10,14-dioxo-1,2,3,4,4a,5,6,6a,6b,7,8,8a,9,10,12a,14,14a,14b-octadecahydropicene-2-carboxylic acid] are within 1.5-fold of each other in IC50: 269 nM for the first, 301 nM for the second.

CC1(C)C(=O)C(C#N)=C[C@]2(C)C3=CC(=O)[C@]4(O)[C@@H]5C[C@@](C)(C(=O)NCc6cnco6)CC[C@]5(C)CC[C@@]4(C)[C@]3(C)CC[C@@H]12 [Example 3, (2S,4aS,6aS,6bR,8aR,12aS,14aS,14bR)-11-cyano-14a-hydroxy-2,4a,6a,6b,9,9,12a-heptamethyl-N-(1,3-oxazol-5-ylmethyl)-10,14-dioxo-1,2,3,4,4a,5,6,6a,6b,7,8,8a,9,10,12a,14,14a,14b-octadecahydropicene-2-carboxamide] and Cn1cc(CNC(=O)[C@@]2(C)CC[C@]3(C)CC[C@@]4(C)[C@]5(C)CC[C@H]6C(C)(C)C(=O)C(C#N)=C[C@]6(C)C5=CC(=O)[C@]4(O)[C@@H]3C2)cn1 [Example 9, (2S,4aS,6aS,6bR,8aR,12aS,14aS,14bR)-11-cyano-14a-hydroxy-2,4a,6a,6b,9,9,12a-heptamethyl-N-[(1-methyl-1H-pyrazol-4-yl)methyl]-10,14-dioxo-1,2,3,4,4a,5,6,6a,6b,7,8,8a,9,10,12a,14,14a,14b-octadecahydropicene-2-carboxamide] are within 1.5-fold of each other in IC50: 14.6 nM for the first, 12.8 nM for the second.

Going from Cn1cc(CNC(=O)[C@@]2(C)CC[C@]3(C)CC[C@]4(C)[C@H](C(=O)C=C5[C@@]6(C)C=C(C#N)C(=O)C(C)(C)[C@@H]6CC[C@]54C)[C@@H]3C2)cn1 [Example 38, (2S,4aS,6aR,6bS,8aR,12aS,14aR,14bS)-11-cyano-2,4a,6a,6b,9,9,12a-heptamethyl-N-[(1-methyl-1H-pyrazol-4-yl)methyl]-10,14-dioxo-1,2,3,4,4a,5,6,6a,6b,7,8,8a,9,10,12a,14,14a,14b-octadecahydropicene-2-carboxamide] to Cn1ccc(CNC(=O)[C@@]2(C)CC[C@]3(C)CC[C@@]4(C)[C@]5(C)CC[C@H]6C(C)(C)C(=O)C(C#N)=C[C@]6(C)C5=CC(=O)[C@]4(O)[C@@H]3C2)n1 [Example 12, (2S,4aS,6aS,6bR,8aR,12aS,14aS,14bR)-11-cyano-14a-hydroxy-2,4a,6a,6b,9,9,12a-heptamethyl-N-[(1-methyl-1H-pyrazol-3-yl)methyl]-10,14-dioxo-1,2,3,4,4a,5,6,6a,6b,7,8,8a,9,10,12a,14,14a,14b-octadecahydropicene-2-carboxamide], the IC50 rises from 6.8 nM to 14.1 nM (2.1-fold). The first is the more potent here.

First: COc1ccc(NC(=O)[C@@]2(C)CC[C@]3(C)CC[C@@]4(C)[C@]5(C)CC[C@H]6C(C)(C)C(=O)C(C#N)=C[C@]6(C)C5=CC(=O)[C@]4(O)[C@@H]3C2)cc1 [Example 27, (2S,4aS,6aS,6bR,8aR,12aS,14aS,14bR)-11-cyano-14a-hydroxy-N-(4-methoxyphenyl)-2,4a,6a,6b,9,9,12a-heptamethyl-10,14-dioxo-1,2,3,4,4a,5,6,6a,6b,7,8,8a,9,10,12a,14,14a,14b-octadecahydropicene-2-carboxamide]
Second: CCCNC(=O)[C@@]1(C)CC[C@]2(C)CC[C@@]3(C)[C@]4(C)CC[C@H]5C(C)(C)C(=O)C(C#N)=C[C@]5(C)C4=CC(=O)[C@]3(O)[C@@H]2C1 [Example 25, (2S,4aS,6aS,6bR,8aR,12aS,14aS,14bR)-11-cyano-14a-hydroxy-2,4a,6a,6b,9,9,12a-heptamethyl-10,14-dioxo-N-propyl-1,2,3,4,4a,5,6,6a,6b,7,8,8a,9,10,12a,14,14a,14b-octadecahydropicene-2-carboxamide]
The IC50 of the first is 1.7-fold higher: 13.6 nM for the first, 7.8 nM for the second.

Going from CC1(C)C(=O)C(C#N)=C[C@]2(C)C3=CC(=O)[C@]4(O)[C@@H]5C[C@@](C)(C(=O)NC6CCCCC6)CC[C@]5(C)CC[C@@]4(C)[C@]3(C)CC[C@@H]12 [Example 21, (2S,4aS,6aS,6bR,8aR,12aS,14aS,14bR)-11-cyano-N-cyclohexyl-14a-hydroxy-2,4a,6a,6b,9,9,12a-heptamethyl-10,14-dioxo-1,2,3,4,4a,5,6,6a,6b,7,8,8a,9,10,12a,14,14a,14b-octadecahydropicene-2-carboxamide] to CC(O)CNC(=O)[C@@]1(C)CC[C@]2(C)CC[C@@]3(C)[C@]4(C)CC[C@H]5C(C)(C)C(=O)C(C#N)=C[C@]5(C)C4=CC(=O)[C@]3(O)[C@@H]2C1 (stereo partly drawn) [Example 19, (2S,4aS,6aS,6bR,8aR,12aS,14aS,14bR)-11-cyano-14a-hydroxy-N-(2-hydroxypropyl)-2,4a,6a,6b,9,9,12a-heptamethyl-10,14-dioxo-1,2,3,4,4a,5,6,6a,6b,7,8,8a,9,10,12a,14,14a,14b-octadecahydropicene-2-carboxamide], the IC50 rises from 9.7 nM to 67.9 nM (7-fold). The first is the more potent here.

Going from CC1(C)C(=O)C(C#N)=C[C@]2(C)C3=CC(=O)[C@]4(O)[C@@H]5C[C@@](C)(C(=O)NCCN6CCOCC6)CC[C@]5(C)CC[C@@]4(C)[C@]3(C)CC[C@@H]12 [Example 10, (2S,4aS,6aS,6bR,8aR,12aS,14aS,14bR)-11-cyano-14a-hydroxy-2,4a,6a,6b,9,9,12a-heptamethyl-N-[2-(morpholin-4-yl)ethyl]-10,14-dioxo-1,2,3,4,4a,5,6,6a,6b,7,8,8a,9,10,12a,14,14a,14b-octadecahydropicene-2-carboxamide] to CCC(C)CNC(=O)[C@@]1(C)CC[C@]2(C)CC[C@@]3(C)[C@]4(C)CC[C@H]5C(C)(C)C(=O)C(C#N)=C[C@]5(C)C4=CC(=O)[C@]3(O)[C@@H]2C1 (stereo partly drawn) [Example 33, (2S,4aS,6aS,6bR,8aR,12aS,14aS,14bR)-11-cyano-14a-hydroxy-2,4a,6a,6b,9,9,12a-heptamethyl-N-(2-methylbutyl)-10,14-dioxo-1,2,3,4,4a,5,6,6a,6b,7,8,8a,9,10,12a,14,14a,14b-octadecahydropicene-2-carboxamide], the IC50 rises from 23.9 nM to 43.7 nM (1.8-fold). The first is the more potent here.
